Our source for the IC50 values is patent US10251893B2 (NOVARTIS AG, priority 2009, dated 2019).

SMILES strings stand for the structures. A value given as a limit tells only on which side of the number the result lay.

The subject of the experiment is Wnt signaling. Briefly: Wnt-Luc reporter assay for pathway inhibition of Wnt signaling. Type of experiment: cell-based, Mouse (TM3 Wnt-Luc cells) or Human (293 Wnt-Luc cells). Particulars: 24 h, Wnt-Luc reporter cells co-cultured with L-cell Wnt3a cells, luciferase luminescence reduced by 50%. An excerpt: The exemplified compounds of the invention are summarized in Table 1, with IC50 values measured using Wnt-Luc reporter assays.
As for `Cc1cc(-c2ccc(CC(=O)Nc3ccc(-c4cccc(F)c4)cn3)cc2)ccn1` [compound 56], the IC50 (usually the point on the concentration scale where inhibition reaches its midpoint) is < 0.09 nM.

On to `Cc1cc(-c2ccc(CC(=O)Nc3ccc(-c4ccccc4)cn3)cc2)ccn1` [Cpd 26], for which the half-maximal inhibitory concentration (IC50) is < 0.4 nM.

For `Cc1cc(CC(=O)Nc2ccc(-c3cccc(F)c3)cn2)cnc1-c1ccnnc1` [Cpd 74], the half-inhibitory concentration (IC50) is < 0.1 nM.

Regarding `Cc1cc(-c2ccc(CC(=O)Nc3ccc(-c4ccccc4)nc3)cc2)ccn1` [compound 36], the IC50 is < 0.11 nM.

`Cc1cc(-c2ncc(CC(=O)Nc3ccc(-c4cnccn4)cn3)cc2C)ccn1` [Cpd 86] gave an IC50 of 0.38 nM.

Consider `Cc1cc(-c2ccc(CC(=O)Nc3ccc(-c4cccnc4)cc3)cc2)ccn1` [compound 59], for which the half-inhibitory concentration (IC50) was < 0.11 nM.

As to `Cc1cc(-c2ccc(CC(=O)Nc3ccc(-c4ccccc4)cn3)cn2)ccn1` [compound 51], the IC50 was < 0.14 nM.
